Experimental data: patent publication US20050085447A1, “Pyrido[3,4-d]pyrimidine derivatives as matrix metalloproteinase-13 inhibitors” (Warner-Lambert Company LLC, priority 2003, published 2005)
pIC50: −log10 of the molar value. Like-named read-outs stand apart in the source and are kept apart here.

Assays:
Assay type in all cases: biochemical
MMP-13 catalytic domain = MMP-13 catalytic domain (Homo sapiens, UniProt P45452); assay: Thiopeptolide substrate hydrolysis inhibition assay, MMP-13 catalytic domain
Excerpt: The methods described below for the inhibition of MMP-13 may also be adapted and used to determine the ability of the compounds of Formula I to inhibit other matrix metalloproteases such as MMP-1, MMP-2, MMP-3, MMP-7, MMP-8, MMP-9, MMP-12, MMP-14, MMP-17, and the like.
Thiopeptolide substrates show virtually no decomposition or hydrolysis at or below neutral pH in the absence of a matrix metalloproteinase enzyme. A typical thiopeptolide substrate commonly utilized for assays is Ac-Pro-Leu-Gly-thioester-Leu-Leu-Gly-OEt. A 100 μL assay mixture will contain 50 mM of N-2-hydroxyethylpiperazine-N′-2-ethanesulfonic acid buffer (“HEPES,” pH 7.0), 10 mM CaCl2, 100 μM thiopeptolide substrate, and 1 mM 5,5′-dithio-bis-(2-nitro-benzoic acid) (DTNB). […] Assays are carried out with and without matrix metalloproteinase inhibitor compounds, and the amount of hydrolysis is compared for a determination of inhibitory activity of the test compounds.

MMP-1 full-length = target: T1, MMP-1 full-length (Homo sapiens, UniProt P03956); assay: Thiopeptolide substrate hydrolysis inhibition assay, MMP-1 full-length; settings: full-length enzyme; read-out: MMP-1FL IC50
T1 construct: have also been assayed with MMP-1 full-length
T1 sequence (P03956 100-469): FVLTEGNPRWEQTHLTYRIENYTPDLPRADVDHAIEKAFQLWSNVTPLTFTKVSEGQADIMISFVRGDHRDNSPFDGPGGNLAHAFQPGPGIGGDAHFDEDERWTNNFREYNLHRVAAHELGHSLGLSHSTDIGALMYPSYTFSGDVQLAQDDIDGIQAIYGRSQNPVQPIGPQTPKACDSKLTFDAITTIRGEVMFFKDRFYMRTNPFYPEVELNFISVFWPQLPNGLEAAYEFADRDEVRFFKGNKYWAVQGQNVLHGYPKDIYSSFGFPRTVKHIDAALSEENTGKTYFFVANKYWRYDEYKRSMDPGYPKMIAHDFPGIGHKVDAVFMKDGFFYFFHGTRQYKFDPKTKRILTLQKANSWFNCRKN
Excerpt: (§1) The assay methods of Biological Examples 1-4 measure the amount by which a test compound reduces the hydrolysis of a thiopeptolide substrate catalyzed by a matrix metalloproteinase enzyme or catalytic domain thereof. It has been shown previously by Ye Qi-Zhuang, Hupe D., and Johnson L. (Current Medicinal Chemistry, 1996;3:407-418) that inhibitor activity against a catalytic domain of an MMP is predictive of the inhibitor activity against the respective full-length MMP enzyme. The methods described below for the inhibition of MMP-13 may also be adapted and used to determine the ability of the compounds of Formula I to inhibit other matrix metalloproteases such as MMP-1, MMP-2, MMP-3, MMP-7, MMP-8, MMP-9, MMP-12, MMP-14, MMP-17, and the like.
(§2) Thiopeptolide substrates show virtually no decomposition or hydrolysis at or below neutral pH in the absence of a matrix metalloproteinase enzyme. A typical thiopeptolide substrate commonly utilized for assays is Ac-Pro-Leu-Gly-thioester-Leu-Leu-Gly-OEt. A 100 μL assay mixture will contain 50 mM of N-2-hydroxyethylpiperazine-N′-2-ethanesulfonic acid buffer (“HEPES,” pH 7.0), 10 mM CaCl2, 100 μM thiopeptolide substrate, and 1 mM 5,5′-dithio-bis-(2-nitro-benzoic acid) (DTNB). […] The change in absorbance at 405 nm is monitored on a Thermo Max microplate reader (molecular Devices, Menlo Park, Calif.) at room temperature (22° C.). The calculation of the amount of hydrolysis of the thiopeptolide substrate is based on E412=13600 M^−1 cm^−1 for the DTNB-derived product 3-carboxy-4-nitrothiophenoxide. Assays are carried out with and without matrix metalloproteinase inhibitor compounds, and the amount of hydrolysis is compared for a determination of inhibitory activity of the test compounds.
(§3) Test compounds were evaluated at various concentrations in order to determine their respective IC50 values, the micromolar concentration of compound required to cause a 50% inhibition of catalytic activity of the respective enzyme.
(§4) Some representative compounds of Formula I have been evaluated for their ability to inhibit MMP-13, MMP-1FL, MMP-3CD, MMP-7FL, MMP-8FL, MMP-9FL, MMP-12CD, MMP-14CD, and/or MMP-17CD, wherein FL means full-length enzyme and CD means a catalytic domain of the full-length enzyme. Test compounds can be evaluated at various concentrations in order to determine their respective IC50 values, the micromolar concentration of compound required to cause a 50% inhibition of the hydrolytic activity of the respective enzyme.
(§5) Certain compounds of Formula I have also been assayed with MMP-1 full-length, MMP-3 catalytic domain, MMP-7 full-length, MMP-8 full-length, MMP-9 full-length, MMP-12 catalytic domain, MMP-14 catalytic domain, and MMP-17 catalytic domain. […] In Biological Table 2, the compound example numbers for the Compound Examples are indicated in the column labelled “Ex. No.”

MMP-3 catalytic domain = target: T2, MMP-3 catalytic domain (Homo sapiens, UniProt P08254); assay: Thiopeptolide substrate hydrolysis inhibition assay, MMP-3 catalytic domain; settings: MES buffer pH 6.0, read-out: MMP-3CD IC50
T2 construct: MMP-1 full-length, MMP-3 catalytic domain, MMP-7 full-length
Excerpt: as §1, §2, §3
It should be appreciated that the assay buffer used with MMP-3CD was 50 mM N-morpholinoethane sulfonate (“MES”) at pH 6.0 rather than the HEPES buffer at pH 7.0 described above.
as §4, §5

MMP-7 full-length = target: T3, MMP-7 full-length (Homo sapiens, UniProt P09237); assay: Thiopeptolide substrate hydrolysis inhibition assay, MMP-7 full-length; settings: full-length enzyme; read-out: MMP-7FL IC50
T3 construct: MMP-3 catalytic domain, MMP-7 full-length, MMP-8 full-length
T3 sequence (P09237 95-267): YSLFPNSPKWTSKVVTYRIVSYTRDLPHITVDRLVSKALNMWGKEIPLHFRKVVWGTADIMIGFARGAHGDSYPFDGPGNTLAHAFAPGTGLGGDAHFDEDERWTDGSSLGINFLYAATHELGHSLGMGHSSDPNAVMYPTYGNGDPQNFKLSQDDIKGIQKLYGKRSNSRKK
Excerpt: as §1, §2, §3, §4, §5

MMP-9 full-length = target: T4, MMP-9 full-length (Homo sapiens, UniProt P14780); assay: Thiopeptolide substrate hydrolysis inhibition assay, MMP-9 full-length; settings: full-length enzyme; read-out: MMP-9FL IC50
T4 construct: MMP-8 full-length, MMP-9 full-length, MMP-12 catalytic domain
Excerpt: as §1, §2, §3, §4, §5

MMP-14 catalytic domain = target: T5, MMP-14 catalytic domain (Homo sapiens, UniProt P50281); assay: Thiopeptolide substrate hydrolysis inhibition assay, MMP-14 catalytic domain; settings: read-out: MMP-14CD IC50
T5 construct: MMP-14 catalytic domain, and MMP-17 catalytic domain
Excerpt: as §1, §2, §3, §4, §5

MMP-17 catalytic domain = target: T6, MMP-17 catalytic domain (Homo sapiens, UniProt Q9ULZ9); assay: Thiopeptolide substrate hydrolysis inhibition assay, MMP-17 catalytic domain; settings: read-out: MMP-17 CD IC50
T6 construct: MMP-14 catalytic domain, and MMP-17 catalytic domain
T6 sequence (Q9ULZ9 126-295 limits assumed): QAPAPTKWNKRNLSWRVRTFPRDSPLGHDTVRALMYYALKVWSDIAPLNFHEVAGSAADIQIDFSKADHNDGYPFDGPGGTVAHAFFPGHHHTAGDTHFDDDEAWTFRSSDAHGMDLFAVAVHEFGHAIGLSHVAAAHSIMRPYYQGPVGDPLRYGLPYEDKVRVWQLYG
Excerpt: as §1, §2, §3, §4, §5

MMP-8 full-length = target: T7, MMP-8 full-length (Homo sapiens, UniProt P22894); assay: Thiopeptolide substrate hydrolysis inhibition assay, MMP-8 full-length; settings: full-length enzyme; read-out: MMP-8FL IC50
T7 construct: MMP-7 full-length, MMP-8 full-length, MMP-9 full-length
Excerpt: as §1, §2, §3, §4, §5

MMP-12 catalytic domain = target: T8, MMP-12 catalytic domain (Homo sapiens, UniProt P39900); assay: Thiopeptolide substrate hydrolysis inhibition assay, MMP-12 catalytic domain; settings: read-out: MMP-12CD IC50
T8 construct: MMP-9 full-length, MMP-12 catalytic domain, MMP-14 catalytic domain
Excerpt: as §1, §2, §3, §4, §5

[1] = MMP-13 catalytic domain, read-out: MMP-13CD IC50

T4 sequence (P14780 94-707): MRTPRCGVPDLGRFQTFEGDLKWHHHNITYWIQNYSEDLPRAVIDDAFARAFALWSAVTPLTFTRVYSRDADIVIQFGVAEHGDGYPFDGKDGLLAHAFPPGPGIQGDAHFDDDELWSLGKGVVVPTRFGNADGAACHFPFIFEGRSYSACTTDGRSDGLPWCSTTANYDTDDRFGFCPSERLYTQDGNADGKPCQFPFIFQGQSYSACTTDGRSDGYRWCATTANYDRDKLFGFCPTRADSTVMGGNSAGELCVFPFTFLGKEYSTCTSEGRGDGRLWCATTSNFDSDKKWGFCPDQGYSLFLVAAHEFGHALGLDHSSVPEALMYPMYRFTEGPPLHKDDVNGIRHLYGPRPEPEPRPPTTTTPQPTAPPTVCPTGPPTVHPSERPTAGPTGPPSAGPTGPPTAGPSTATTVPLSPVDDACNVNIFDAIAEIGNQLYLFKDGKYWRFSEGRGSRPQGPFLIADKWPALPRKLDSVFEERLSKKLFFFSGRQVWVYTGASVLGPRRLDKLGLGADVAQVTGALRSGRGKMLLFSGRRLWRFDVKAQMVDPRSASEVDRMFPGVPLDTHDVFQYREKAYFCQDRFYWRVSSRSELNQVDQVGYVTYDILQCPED
T7 sequence (P22894 101-467): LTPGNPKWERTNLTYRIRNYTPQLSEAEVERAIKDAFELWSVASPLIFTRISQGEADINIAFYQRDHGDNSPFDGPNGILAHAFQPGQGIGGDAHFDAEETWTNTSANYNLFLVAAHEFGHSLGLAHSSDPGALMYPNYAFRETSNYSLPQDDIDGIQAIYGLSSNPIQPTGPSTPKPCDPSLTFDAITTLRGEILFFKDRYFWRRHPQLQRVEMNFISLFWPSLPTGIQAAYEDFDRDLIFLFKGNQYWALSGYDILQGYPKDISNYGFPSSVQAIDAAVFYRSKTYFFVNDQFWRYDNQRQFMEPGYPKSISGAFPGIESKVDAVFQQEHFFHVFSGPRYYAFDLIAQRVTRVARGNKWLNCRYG
T2 sequence (P08254 100-272 limits assumed): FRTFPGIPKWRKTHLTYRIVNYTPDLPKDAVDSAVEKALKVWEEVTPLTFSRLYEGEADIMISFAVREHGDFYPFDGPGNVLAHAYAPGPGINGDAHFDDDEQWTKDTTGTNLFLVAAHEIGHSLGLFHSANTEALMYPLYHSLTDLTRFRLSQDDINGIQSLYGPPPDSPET
T8 sequence (P39900 106-263 limits assumed): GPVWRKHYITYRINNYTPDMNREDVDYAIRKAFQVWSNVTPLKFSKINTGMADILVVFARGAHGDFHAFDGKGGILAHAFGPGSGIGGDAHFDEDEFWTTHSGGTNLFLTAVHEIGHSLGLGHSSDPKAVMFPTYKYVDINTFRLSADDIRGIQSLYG

Structure (SMILES) | pIC50 (MMP-1 full-length) | pIC50 (MMP-3 catalytic domain) | pIC50 (MMP-7 full-length) | pIC50 (MMP-9 full-length) | pIC50 (MMP-14 catalytic domain) | pIC50 (MMP-17 catalytic domain) | pIC50 (MMP-13 catalytic domain; [1]) | pIC50 (MMP-8 full-length) | pIC50 (MMP-12 catalytic domain) | pIC50 (MMP-13 catalytic domain)
O=C(O)c1ccc(Cn2cnc3cnc(C(=O)NCc4cccc(C(F)(F)F)c4)cc3c2=O)cc1 [Compound Example 13, 4-[4-oxo-6-(3-trifluoromethyl-benzylcarbamoyl)-4H-pyrido[3,4-d]pyrimidin-3-ylmethyl]-benzoic acid] | < 4.00 | 4.32 | < 4.00 | < 4.00 | < 4.00 | < 4.00 |  |  |  | 8.59
O=C(O)c1ccc(Cn2cnc3cnc(C(=O)NCc4cccc(Cl)c4)cc3c2=O)cc1 [Compound Example 10, 4-[6-(3-chloro-benzylcarbamoyl)-4-oxo-4H-pyrido[3,4-d]pyrimidin-3-ylmethyl]-benzoic acid] | < 4.00 | 4.39 | < 4.00 | < 4.00 | < 4.00 | < 4.00 |  | < 4.00 |  | 
O=C(O)c1ccc(Cn2cnc3cnc(C(=O)NCc4cccc(F)c4)cc3c2=O)cc1 [Compound Example 11, 4-[6-(3-fluoro-benzylcarbamoyl)-4-oxo-4H-pyrido[3,4-d]pyrimidin-3-ylmethyl]-benzoic acid] | < 4.00 | < 4.00 | < 4.00 | < 4.00 | < 4.00 | < 4.00 |  | < 4.00 |  | 7.77
O=C(O)c1ccc(Cn2cnc3cnc(C(=O)NCc4ccc(C(F)(F)F)cc4)cc3c2=O)cc1 [Compound Example 12, 4-[4-oxo-6-(4-trifluoromethyl-benzylcarbamoyl)-4H-pyrido[3,4-d]pyrimidin-3-ylmethyl]-benzoic acid] | < 4.00 | < 4.00 | < 4.00 | < 4.00 | < 4.00 | < 4.00 |  | < 4.00 |  | 7.01
O=C(O)c1ccc(Cn2cnc3cnc(C(=O)NCc4ccc(Cl)cc4)cc3c2=O)cc1 [Compound Example 4, 4-[6-(4-chloro-benzylcarbamoyl)-4-oxo-4H-pyrido [3,4-d]pyrimidin-3-ylmethyl]-benzoic acid] | < 4.00 | < 4.00 | < 4.00 | < 4.00 | < 4.00 | < 4.00 |  |  |  | 8.00

The next lines start with results.

pIC50 (MMP-1 full-length) | pIC50 (MMP-3 catalytic domain) | pIC50 (MMP-7 full-length) | pIC50 (MMP-9 full-length) | pIC50 (MMP-14 catalytic domain) | pIC50 (MMP-17 catalytic domain) | pIC50 (MMP-13 catalytic domain; [1]) | pIC50 (MMP-8 full-length) | pIC50 (MMP-12 catalytic domain) | Structure (SMILES) | pIC50 (MMP-13 catalytic domain)
< 4.00 | < 4.00 | < 4.00 | < 4.00 | < 4.00 | < 4.00 | 7.49 | < 4.00 |  | O=C(O)c1ccc(Cn2cnc3cnc(C(=O)NCc4cccnc4)cc3c2=O)cc1 [Compound Example 3, 4-{4-oxo-6-[(pyridin-3-ylmethyl)-carbamoyl]-4H-pyrido[3,4-d]pyrimidin-3-ylmethyl}-benzoic acid] | 
< 4.00 | 4.38 | < 4.00 | < 4.00 | < 4.00 | < 4.00 | 8.28 | < 4.00 |  | O=C(O)c1ccc(Cn2cnc3cnc(C(=O)NCc4ccc(F)c(F)c4)cc3c2=O)cc1 [Compound Example 14, 4-[6-(3,4-difluoro-benzylcarbamoyl)-4-oxo-4H-pyrido[3,4-d]pyrimidin-3-ylmethyl]-benzoic acid] | 
 | 4.09 |  |  | < 4.00 | < 4.00 | 8.30 |  | < 4.00 | O=C(O)c1ccc(Cn2cnc3cnc(C(=O)NCc4ccncc4)cc3c2=O)cc1 [Compound Example 5, 4-{4-oxo-6-[(pyridin-4-ylmethyl)-carbamoyl]-4H-pyrido[3,4-d]pyrimidin-3-ylmethyl}-benzoic acid] | 
 | 4.77 |  |  | < 4.00 | < 4.00 |  |  | < 4.00 | COc1cc(CNC(=O)c2cc3c(=O)n(Cc4ccc(C(=O)O)cc4)cnc3cn2)ccn1 [Compound Example 6, 4-{6-[(2-methoxy-pyridin-4-ylmethyl)-carbamoyl]-4-oxo-4H-pyrido [3,4-d]pyrimidin-3-ylmethyl}-benzoic acid] | 
< 4.00 | 4.85 | < 4.00 | < 4.00 | < 4.00 | < 4.00 | 8.89 | < 4.00 |  | COc1cccc(CNC(=O)c2cc3c(=O)n(Cc4ccc(C(=O)O)cc4)cnc3cn2)c1 [Compound Example 2, 4-[6-(3-methoxy-benzylcarbamoyl)-4-oxo-4H-pyrido[3,4-d]pyrimidin-3-ylmethyl]-benzoic acid] | 
< 4.00 | < 4.00 | < 4.52 | < 4.00 | < 4.52 | < 4.00 | 7.70 | < 4.00 |  | COc1cc(CNC(=O)c2cc3c(=O)n(Cc4ccc(C(=O)O)cc4)cnc3cn2)ccc1O [Compound Example 15, 4-[6-(4-hydroxy-3-methoxy-benzylcarbamoyl)-4-oxo-4H-pyrido[3,4-d]pyrimidin-3-ylmethyl]-benzoic acid] | 
